Assays:
Format in all cases: cell-based, Sprague-Dawley (SD) rats
NSCs [1] = experiment: Immunofluorescent assay of MAP-2-positive cells in differentiating NSCs; settings: Day 7 culture of IM-treated NSCs vs non IM-treated NSCs, p<0.05
caspase 3 = experiment: Caspase 3 activity ELISA in LPS-treated NSCs; settings: LPS (100 ng/ml) exposure, Day 7, vs LPS-treated NSCs without treatment, p<0.05
caspase 8 = experiment: Caspase 8 activity ELISA in LPS-treated NSCs; settings: LPS (100 ng/ml) exposure, Day 7, vs LPS-treated NSCs without treatment, p<0.05
IL-6 = IL-6 ELISA in LPS-treated NSCs; settings: vs only LPS-treated NSCs, IM 3 µM, p<0.05
LPS-treated NSCs [2] = experiment: MTT cell survival of LPS-treated NSCs; settings: vs the only LPS-treated NSCs; LPS 100 ng/ml
MAP2 = experiment: Real-time RT-PCR of MAP2 mRNA in IM-treated NSCs; settings: Days 5 and Day 7 IM-treated NSCs vs non IM-treated NSCs, p<0.05
Protocol: (§1) All animals used were treated in accordance with the Animal Care and Use Committee guideline at Taipei Veterans General Hospital. The protocol of the present study was also approved by the committee. Adult Sprague-Dawley (SD) rats (8 weeks old, 250 g) were anesthetized with intraperitoneal phenobarbital (Sigma, USA), and the location of their brains was mapped. Then, the brain […]. In brief, tissues from the hippocampus of adult rats were dissociated and incubated in Hank's balanced salt solution (HBSS) containing collagenase (78 units/ml) and hyaluronidase (38 units/ml) for 10 minutes at 37°C. The tissues were then mechanically dissected and placed in a trypsin solution (1.33 mg/ml) at 37°C for another 10 minutes. Dissociated cells were then centrifuged at 150 GG for 5 minutes. […] Viable cells were counted by trypan blue exclusion and plated as 5000 cells/200 µL per well in 96-well plates (Coming Inc, Acton, MA, USA) with no substrate pretreatment. […]
(§2) For real-time RT-PCR, the total RNA was extracted using the RNAeasy kit (Qiagen, Valencia, CA, USA). […] The quantification in the unknown samples was performed with LightCycler Relative Quantification Software version 3.3 (Roche Molecular Systems, Alameda, CA, USA). […]

LPS-treated NSCs [3] = experiment: TUNEL assay of LPS-induced apoptosis in NSCs; settings: LPS-treated NSCs, vs LPS-treated NSCs without treatment
Bcl-2 = experiment: Real-time RT-PCR of Bcl-2 mRNA in IM-treated NSCs
Protocol: as §1, §2

NSCs [4] = experiment: Immunofluorescent assay of serotonin (5-HT)-positive cells in differentiating NSCs; settings: Day 7 culture of IM-treated NSCs vs non IM-treated NSCs, p<0.05
Bcl-2 protein = Bcl-2 protein expression in NSCs by western blot and immunohistochemistry
NSCs [5] = experiment: Microdialysis with HPLC-ECD of 5-HT in the culture medium of IM-treated NSCs; settings: Day 7 and Day 14, IM-treated NSCs vs NSCs without IM treatment, p<0.05

CN(C)CCCN1c2ccccc2CCc2ccccc21 [IM, imipramine]
percentages of MAP-2-positive cells (NSCs [1]): significantly increased | apoptotic activities of caspase 3 (caspase 3): significantly decreased | apoptotic activities of caspase 8 (caspase 8): significantly decreased | IL-6 production in the LPS-treated NSCs (IL-6): effectively reduces | cell survival rates in the LPS-treated NSCs (LPS-treated NSCs [2]): significantly increases | mRNA levels of MAP2 (MAP2): significantly increased | LPS-induced apoptosis (TUNEL assay) (LPS-treated NSCs [3]): protected against LPS-induced apoptosis | levels of Bcl-2 mRNA (Bcl-2; 1, 3, and 5 µM IM, Day 7, vs Day 7 non-IM-treated NSCs): significantly increased | mRNA levels of Bcl-2 (Bcl-2; Days 5 and Day 7 IM-treated NSCs vs non IM-treated NSCs, p<0.05): significantly increased | percentages of serotonin (5-HT)-positive cells (NSCs [4]): significantly increased | protein expression level of Bcl-2 in LPS-treated NSCs (Bcl-2 protein; 3 µM IM vs 1, 2 µM IM-LPS-treated, only LPS-treated and control groups): significantly increased | protein levels of Bcl-2 (western blot) (Bcl-2 protein; Day 3 IM-treated NSCs vs Day 3 non-IM-treated NSCs, p<0.05): higher | expression levels of the Bcl-2 protein (western blot) (Bcl-2 protein; Day 7 IM-treated NSCs vs Day 3 or Day 5 IM-treated NSCs, p<0.05): significantly increased | protein expression of Bcl-2 (immunohistochemistry) (Bcl-2 protein; Day 7 IM-treated NSCs vs NSCs without the IM treatment): significantly increased | Bcl-2 expression in NSCs (Bcl-2 protein; treatment with IM only or BDNF only): can activate Bcl-2 expression | 5-HT levels of the culture mediums (NSCs [5]): significantly higher

Source: patent EP2077092A2, “System and Methods for Screening or Analyzing Targets” (Taipei Veterans General Hospital, priority 2007, dated 2009)
